Test [1] is described as follows: Inhibition of Escherichia coli DNA polymerase 1 Klenow fragment preincubated for 15 mins followed by addition of DNA substrate for 60 mins in presence of dNTPS/TAMRA tracer by fluorescence polarization assay.
Test [2] is described as follows: Inhibition of Escherichia coli DNA polymerase 1 Klenow fragment preincubated for 15 mins followed by addition of DNA substrate for 60 mins in presence of dNTPS by picoGreen reagent based assay.

Regarding `Nc1ncnc2c1ncn2[C@H]1CC[C@@H](COP(=O)(O)OP(=O)(O)OP(=O)(O)O)O1` [DDA-TRIPHOSPHATE], the IC50 in test [1] worked out at 27 µM; in test [2], 69 µM.

Values taken from ChEMBL document CHEMBL4431345, “A fluorescence polarization based assay for the identification and characterization of polymerase inhibitors” (Bioorg Med Chem Lett, 2016).
